Experimental data reported in BindingDB's records for doi:10.1021/jm960794l (Institute of Cancer Research, 1997).

Experiment: Cytotoxicity in T79-A3 (NR-positive) cell lines

Question: Which IC50 does the source give for `NC(=O)c1cc(N2CC2)c([N+](=O)[O-])cc1[N+](=O)[O-]` here?
Answer: 0.89 µM

Question: For `NC(=O)c1cc(N(CCCl)CCCl)c([N+](=O)[O-])cc1[N+](=O)[O-]`, which IC50 is on record?
Answer: 15 µM

Question: With `NC(=O)c1cc([N+](=O)[O-])cc([N+](=O)[O-])c1N(CCBr)CCBr` [2-[Bis-(2-bromo-ethyl)-amino]-3,5-dinitro-benzamide] as the compound, how does the IC50 read?
Answer: 0.19 µM

Question: Which IC50 does the source give for `NC(=O)c1cc([N+](=O)[O-])cc([N+](=O)[O-])c1N(CCCl)CCCl` [2-[Bis-(2-chloro-ethyl)-amino]-3,5-dinitro-benzamide] here?
Answer: 7.5 µM

Question: For `O=C(NCC(O)CO)c1cc([N+](=O)[O-])cc([N+](=O)[O-])c1N(CCCl)CCCl` (stereo unspecified) [2-[Bis-(2-chloro-ethyl)-amino]-N-(2,3-dihydroxy-propyl)-3,5-dinitro-benzamide], which IC50 is on record?
Answer: 13 µM

Question: With `NC(=O)c1cc([N+](=O)[O-])cc([N+](=O)[O-])c1N(CCI)CCI` [2-[Bis-(2-iodo-ethyl)-amino]-3,5-dinitro-benzamide] as the compound, how does the IC50 read?
Answer: 0.1 µM

Question: For `O=C(NCC(O)CO)c1cc([N+](=O)[O-])cc([N+](=O)[O-])c1N(CCI)CCI` (stereo unspecified) [2-[Bis-(2-iodo-ethyl)-amino]-N-(2,3-dihydroxy-propyl)-3,5-dinitro-benzamide], which IC50 is on record?
Answer: 4 µM

Question: With `NC(=O)c1c([N+](=O)[O-])ccc(N(CCCl)CCCl)c1[N+](=O)[O-]` [3-[Bis-(2-chloro-ethyl)-amino]-2,6-dinitro-benzamide] as the compound, how does the IC50 read?
Answer: > 1000 µM

Question: For `CN(C)CCNC(=O)c1c([N+](=O)[O-])ccc(N(CCCl)CCCl)c1[N+](=O)[O-]` [3-[Bis-(2-chloro-ethyl)-amino]-N-(2-dimethylamino-ethyl)-2,6-dinitro-benzamide], which IC50 is on record?
Answer: 895 µM

Question: With `NC(=O)c1cc(N(CCBr)CCBr)c([N+](=O)[O-])cc1[N+](=O)[O-]` [5-(bis(2-bromoethyl)amino)-2,4-dinitrobenzamide] as the compound, how does the IC50 read?
Answer: 0.25 µM

Question: With `NC(=O)c1cc(N(CCI)CCI)c([N+](=O)[O-])cc1[N+](=O)[O-]` [5-(bis(2-iodoethyl)amino)-2,4-dinitrobenzamide] as the compound, how does the IC50 read?
Answer: 0.23 µM

Question: For `O=C(NCC(O)CO)c1cc(N(CCI)CCI)c([N+](=O)[O-])cc1[N+](=O)[O-]` (stereo unspecified) [5-(bis(2-iodoethyl)amino)-N-(2,3-dihydroxypropyl)-2,4-dinitrobenzamide], which IC50 is on record?
Answer: 1.9 µM

Question: With `CS(=O)(=O)CCN(CCCl)c1cc(C(N)=O)c([N+](=O)[O-])cc1[N+](=O)[O-]` [5-[(2-Chloro-ethyl)-(2-methanesulfonyl-ethyl)-amino]-2,4-dinitro-benzamide] as the compound, how does the IC50 read?
Answer: 3.4 µM

Question: With `CS(=O)(=O)c1cc([N+](=O)[O-])c(C(N)=O)cc1N(CCCl)CCCl` [5-[Bis-(2-chloro-ethyl)-amino]-4-methanesulfonyl-2-nitro-benzamide] as the compound, how does the IC50 read?
Answer: 58 µM

Question: With `O=C(NCC(O)CO)c1cc(N(CCCl)CCCl)c([N+](=O)[O-])cc1[N+](=O)[O-]` (stereo unspecified) [5-[Bis-(2-chloro-ethyl)-amino]-N-(2,3-dihydroxy-propyl)-2,4-dinitro-benzamide] as the compound, how does the IC50 read?
Answer: 89 µM

Question: For `CS(=O)(=O)CCN(CCS(C)(=O)=O)c1cc(C(N)=O)c([N+](=O)[O-])cc1[N+](=O)[O-]` [5-[Bis-(2-methanesulfonyl-ethyl)-amino]-2,4-dinitro-benzamide], which IC50 is on record?
Answer: 9.3 µM
